Measured values published in patent publication US20250197368A1 (priority 2020, published 2025).
pKi: −log10 of the molar value.

What was measured:
[1] = target: human α2β3γ2 GABAARs (benzodiazepine site) (Homo sapiens (Human), UniProt P18507+P47869); assay: In vitro radioligand binding assay ([3H]Ro15-1788 displacement), α2-GABAAR Ki
Description: The affinity (Ki) of compounds for the benzodiazepine site of human recombinant GABAARs was measured by their ability to inhibit the binding of the selective benzodiazepine antagonist [^3H]Ro15-1788 ([^3H] flumazenil).
Mouse L(tk^−) cells stably expressing human α1β3γ2, α2β3γ2, α3β3γ2, α5β3γ2 GABAARs were generated by transfection of the individual subunits in the dexamethasone-inducible expression vector pMSGneo in mouse L(tk^−) cells (Hadingham et al., 1993, Mol. Pharmacol. 43:970-975 and 1993, Mol. Pharmacol. 44:1211-1218).
L(tk^−) cells stably expressing human α1β3γ2, α2β3γ2, α3β3γ2, α5β3γ2 GABAARs were maintained in DMEM F12 medium supplemented with 10% Foetal Bovine Serum, 1% Penicillin/Streptomycin and 1 mg/mL Geneticin G418 in an incubator at 37° C. with a humidified atmosphere with 5% CO2. Dexamethasone was added to the culture medium to induce GABAAR expression.
L(tk−) cells were harvested and membranes were prepared for each receptor combination in either TE buffer (10 mM Tris·CI/0.1 mM EDTA, pH 7.5) or phosphate buffer (K2PO4 10 mM, pH 7.0) (Hadingham et al. (1992) Proc. Natl. Acad. Sci. USA; 89 (14): 6378-82). Protein concentration, receptor expression and the Kd of [^3H]Ro15-1788 were determined before Ki value of the compounds were evaluated. For Kd evaluation, saturation binding curves were obtained by incubating membrane with various concentrations of [^3H]Ro15-1788 (82.5 Ci/mM), with nonspecific binding measured in the presence of 1-3 μM TP003.
For Ki evaluation, cell membranes were incubated with 4 nM [^3H]Ro15-1788 along with a range of concentrations of test compound. Nonspecific binding was determined using 1-3 μM TP003. All incubations were performed for 1 hour at 4° C. in assay buffer. The total assay volume was 0.5 mL, containing 40 μg/well α1β3γ2, 30 μg/well α2β3γ2, 40 μg/well α3β3γ2 and 30 μg/well for α5β3γ2 of membrane protein. Incubations were terminated by filtration and washing with ice cold Tris-HCl buffer (50 mM, pH=7.4) over Whatman GF/B filters and the radioactivity of the filters was measured using liquid scintillation counting.
The % inhibition of [^3H]Ro15-1788 binding was plotted as a function of compound concentration and the IC50 calculated. From the IC50, the affinity (Ki) was calculated using the method of Cheng and Prusoff using the Kd values obtained for [^3H]Ro15-1788.

[2] = system: human α2β3γ2 GABAARs; assay: In vitro electrophysiological recording assay (automated patch-clamp), α2-GABAAR relative efficacy; format: cell-based; details: % efficacy normalised to diazepam; GABA EC10-20; concentration generally >= 100 times Ki
Description: The efficacy of modulators was evaluated using the automated patch-clamp platforms QPatch16 (Sophion, Copenhagen, Denmark) or SyncroPatch 384PE (Nanion, Germany).
For QPatch electrophysiology testing L(tk^−) cells stably expressing human α1β3γ2, α2β3γ2, α3β3γ2, α5β3γ2 GABAARs were used. HEK293 cells stably expressing human α1β3γ2L, α2β3γ2L, α3β3γ2L and α5β3γ2L GABAARs were used for the SyncroPatch 384PE experiments.
All experiments were carried out at room temperature (20-22° C.) using a standard whole cell procedure and physiological solutions. Gigaseals were formed upon execution of a combined suction/voltage protocol with subsequent increased suction leading to the whole-cell configuration.
The currents recorded were acquired at either 1 KHz or 2 KHz and filtered using a Bessel filter. Whole-cell currents were measured at a holding potential of-65 mV (QPatch) or −80 mV (SyncroPatch).
For QPatch experiments, the extracellular solution contained of: 145 mM NaCl, 4 mM KCl, 1 mM MgCl2, 2 mM CaCl2), 10 mM HEPES, 10 mM D-glucose (pH 7.4), and the intracellular solution consisted of: 96 mM KCl, 28 mM CsCl, 25 mM KOH, 4.3 mM CaCl2), 1.4 mM MgCl2, 10 mM EGTA, 10 mM HEPES, 3 mM MgATP (pH 7.2). The osmolarities of the extracellular and intracellular solutions were 305 and 295 mOsm respectively.
For SyncroPatch experiments, the extracellular recording solution contained: 140 mM NaCl, 4 mM KCl, 2 mM CaCl2), 1 mM MgCl2, 10 mM HEPES, 5 mM glucose (pH 7.4 with NaOH and osmolarity of c. 300-310 mOsm). The intracellular recording solution consisted of: 90 mM KCl, 50 mM KF, 1.5 mM MgCl2, 11.1 mM EGTA and 10 mM HEPES (pH 7.2 with KOH and osmolarity of c. 300 mOsm). 2 mM of NaATP was added to the intracellular solution on the day of testing.
The effects of modulators were evaluated in the presence of a submaximal GABA concentration, giving typically less than 30% activation of the response elicited by a saturating GABA concentration. To check and ensure baseline current stability before compound addition, two to five consecutive applications of GABA EC10-20 separated by wash steps were performed before compound addition. The test compound was applied 1 min at least prior to co-application with GABA EC10-20. Following a further wash step, a saturating concentration of GABA was applied at the end of each recording, allowing the accurate evaluation for each cell of the percentage baseline activation elicited by the submaximal GABA applied.
The compounds were first dissolved in DMSO as a 10 mM stock and then further diluted to the testing concentrations so that the final DMSO concentration in the extracellular recording solution was 0.1% (QPatch) or 0.2% (SyncroPatch).
The % efficacy of modulators was determined from the GABA elicited currents recorded in the presence and absence of the test compound, using the formula:
[((compound peak current−leak)−(GABA peak current-leak))/(GABA peak current−leak)]*100,
where ‘leak’ is the leak baseline current at the holding potential, ‘compound peak current’ is the current elicited by co-application of compound and GABA, and ‘GABA peak current’ is the current elicited by GABA alone at the last GABA application before compound addition. The results were presented as ‘relative efficacy’ for each compound generally at a concentration equal or higher than 100 times their determined Ki. The relative efficacy of a compound was calculated by normalising its % efficacy to the corresponding % efficacy of diazepam that was separately determined.

Chain of human α2β3γ2 GABAARs (benzodiazepine site) (P47869 29-451): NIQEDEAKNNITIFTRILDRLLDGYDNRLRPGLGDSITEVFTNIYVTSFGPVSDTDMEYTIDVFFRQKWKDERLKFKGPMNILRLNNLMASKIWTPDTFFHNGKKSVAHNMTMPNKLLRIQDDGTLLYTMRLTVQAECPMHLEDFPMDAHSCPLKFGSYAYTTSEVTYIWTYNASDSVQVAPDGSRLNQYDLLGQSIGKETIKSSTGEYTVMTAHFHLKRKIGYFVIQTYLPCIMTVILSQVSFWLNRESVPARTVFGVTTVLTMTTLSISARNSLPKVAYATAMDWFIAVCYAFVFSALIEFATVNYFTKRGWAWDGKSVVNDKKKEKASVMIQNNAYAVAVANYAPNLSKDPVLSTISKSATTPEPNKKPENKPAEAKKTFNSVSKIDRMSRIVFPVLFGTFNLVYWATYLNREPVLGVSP
Chain of human α2β3γ2 GABAARs (benzodiazepine site) (P28472 26-473 partner): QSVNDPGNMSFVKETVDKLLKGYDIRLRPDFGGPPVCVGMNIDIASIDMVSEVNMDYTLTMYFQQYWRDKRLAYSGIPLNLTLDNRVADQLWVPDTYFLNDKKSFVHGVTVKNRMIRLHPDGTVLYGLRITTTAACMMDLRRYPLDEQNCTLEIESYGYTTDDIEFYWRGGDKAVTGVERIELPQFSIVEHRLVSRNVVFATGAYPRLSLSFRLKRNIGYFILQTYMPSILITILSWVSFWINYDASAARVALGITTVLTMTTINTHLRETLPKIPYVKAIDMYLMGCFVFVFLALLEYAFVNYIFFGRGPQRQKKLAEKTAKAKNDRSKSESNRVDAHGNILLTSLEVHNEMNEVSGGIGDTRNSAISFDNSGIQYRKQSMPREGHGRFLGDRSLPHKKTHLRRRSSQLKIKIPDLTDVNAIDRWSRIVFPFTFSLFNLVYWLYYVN
Chain of human α2β3γ2 GABAARs (benzodiazepine site) (P18507 40-475): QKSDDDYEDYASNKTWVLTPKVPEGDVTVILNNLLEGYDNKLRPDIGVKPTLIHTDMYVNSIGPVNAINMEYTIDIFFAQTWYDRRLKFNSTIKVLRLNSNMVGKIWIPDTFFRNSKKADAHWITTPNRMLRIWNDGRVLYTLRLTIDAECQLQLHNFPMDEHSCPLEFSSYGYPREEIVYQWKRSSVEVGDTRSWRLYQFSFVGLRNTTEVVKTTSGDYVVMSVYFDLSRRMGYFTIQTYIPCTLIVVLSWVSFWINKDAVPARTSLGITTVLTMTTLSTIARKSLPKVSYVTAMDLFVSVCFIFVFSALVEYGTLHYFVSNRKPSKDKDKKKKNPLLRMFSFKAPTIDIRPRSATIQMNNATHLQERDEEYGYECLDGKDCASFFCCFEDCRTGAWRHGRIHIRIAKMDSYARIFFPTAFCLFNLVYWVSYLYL

Compound: CCCNC(=O)c1c(N)c2cccc(-c3cncc(C)n3)c2[nH]c1=O [Example 46, 4-Amino-8-(6-methylpyrazin-2-yl)-2-oxo-N-propyl-1,2-dihydroquinoline-3-carboxamide]
- pKi [1]: 8.63
- α2-GABAAR Relative Efficacy (vs. Diazepam) [2]: 0.02

Compound: CCCNC(=O)c1c(N)c2cccc(-c3cncc(OC)n3)c2[nH]c1=O [Example 47, 4-Amino-8-(6-methoxypyrazin-2-yl)-2-oxo-N-propyl-1,2-dihydroquinoline-3-carboxamide]
- pKi [1]: 9.64
- α2-GABAAR Relative Efficacy (vs. Diazepam) [2]: 0.08

Compound: CCCNC(=O)c1c(N)c2cccc(-c3cccc(OC)c3)c2[nH]c1=O [Example 48, 4-Amino-8-(3-methoxyphenyl)-2-oxo-N-propyl-1H-quinoline-3-carboxamide]
- pKi [1]: 8.74
- α2-GABAAR Relative Efficacy (vs. Diazepam) [2]: 0.39

Compound: CCCNC(=O)c1c(N)c2cccc(-c3cc(OC)ccc3F)c2[nH]c1=O [Example 49, 4-Amino-8-(2-fluoro-5-methoxy-phenyl)-2-oxo-N-propyl-1H-quinoline-3-carboxamide]
- pKi [1]: 9.37
- α2-GABAAR Relative Efficacy (vs. Diazepam) [2]: 0.26

Compound: CCCNC(=O)c1c(N)c2cccc(-c3c(F)cccc3F)c2[nH]c1=O [Example 50, 4-Amino-8-(2,6-difluorophenyl)-2-oxo-N-propyl-1H-quinoline-3-carboxamide]
- pKi [1]: 9.68
- α2-GABAAR Relative Efficacy (vs. Diazepam) [2]: 0.34

Compound: CCCNC(=O)c1c(N)c2cccc(-c3c(C)noc3C)c2[nH]c1=O [Example 54, 4-Amino-8-(3,5-dimethylisoxazol-4-yl)-2-oxo-N-propyl-1H-quinoline-3-carboxamide]
- pKi [1]: 7.70
- α2-GABAAR Relative Efficacy (vs. Diazepam) [2]: 0.07

Compound: CCNC(=O)c1c(N)c2cccc(-c3cnccc3OC)c2[nH]c1=O [Example 56, 4-Amino-N-ethyl-8-(4-methoxy-3-pyridyl)-2-oxo-1H-quinoline-3-carboxamide]
- pKi [1]: 8.18
- α2-GABAAR Relative Efficacy (vs. Diazepam) [2]: 0.34

Compound: COc1ccncc1-c1cccc2c(N)c(C(=O)NCC3CC3)c(=O)[nH]c12 [Example 59, 4-Amino-N-(cyclopropylmethyl)-8-(4-methoxy-3-pyridyl)-2-oxo-1H-quinoline-3-carboxamide]
- pKi [1]: 8.70
- α2-GABAAR Relative Efficacy (vs. Diazepam) [2]: 0.27

Compound: COc1ccncc1-c1cccc2c(N)c(C(=O)NCC(C)C)c(=O)[nH]c12 [Example 60, 4-Amino-N-isobutyl-8-(4-methoxy-3-pyridyl)-2-oxo-1H-quinoline-3-carboxamide]
- pKi [1]: 7.81
- α2-GABAAR Relative Efficacy (vs. Diazepam) [2]: 0.65

Compound: COCCNC(=O)c1c(N)c2cccc(-c3cnccc3OC)c2[nH]c1=O [Example 63, 4-Amino-N-(2-methoxyethyl)-8-(4-methoxy-3-pyridyl)-2-oxo-1H-quinoline-3-carboxamide]
- pKi [1]: 7.61
- α2-GABAAR Relative Efficacy (vs. Diazepam) [2]: 0.65

Compound: COc1ccncc1-c1cccc2c(N)c(C(=O)NCCO)c(=O)[nH]c12 [Example 64, 4-Amino-N-(2-hydroxyethyl)-8-(4-methoxy-3-pyridyl)-2-oxo-1H-quinoline-3-carboxamide]
- pKi [1]: 7.07
- α2-GABAAR Relative Efficacy (vs. Diazepam) [2]: 0.34

Compound: COc1ccncc1-c1cccc2c(N)c(C(=O)NCCCF)c(=O)[nH]c12 [Example 67, 4-Amino-N-(3-fluoropropyl)-8-(4-methoxy-3-pyridyl)-2-oxo-1H-quinoline-3-carboxamide]
- pKi [1]: 8.43
- α2-GABAAR Relative Efficacy (vs. Diazepam) [2]: 0.54

Compound: COc1ccncc1-c1cccc2c(N)c(C(=O)NCCC(F)F)c(=O)[nH]c12 [Example 68, 4-Amino-N-(3,3-difluoropropyl)-8-(4-methoxy-3-pyridyl)-2-oxo-1H-quinoline-3-carboxamide]
- pKi [1]: 8.31
- α2-GABAAR Relative Efficacy (vs. Diazepam) [2]: 0.54

Compound: Cc1nn(C)cc1-c1cccc2c(N)c(C(=O)NCCC(F)(F)F)c(=O)[nH]c12 [Example 73, 4-Amino-8-(1,3-dimethylpyrazol-4-yl)-2-oxo-N-(3,3,3-trifluoropropyl)-1H-quinoline-3-carboxamide]
- pKi [1]: 8.51
- α2-GABAAR Relative Efficacy (vs. Diazepam) [2]: 0.48

Compound: CCCNC(=O)c1c(N)c2cccc(-c3cccnc3OC)c2n(C)c1=O [Example 76, 4-Amino-8-(2-methoxy-3-pyridyl)-1-methyl-2-oxo-N-propyl-quinoline-3-carboxamide]
- pKi [1]: 8.21
- α2-GABAAR Relative Efficacy (vs. Diazepam) [2]: 0.42

Compound: COc1ccncc1-c1cccc2c(N)c(C(=O)NCC3CC3)c(=O)n(C)c12 [Example 78, 4-Amino-N-(cyclopropylmethyl)-8-(4-methoxy-3-pyridyl)-1-methyl-2-oxo-quinoline-3-carboxamide]
- pKi [1]: 8.68
- α2-GABAAR Relative Efficacy (vs. Diazepam) [2]: 0.70

Compound: COc1ccncc1-c1cccc2c(N)c(C(=O)NCC(C)C)c(=O)n(C)c12 [Example 79, 4-Amino-N-isobutyl-8-(4-methoxy-3-pyridyl)-1-methyl-2-oxo-quinoline-3-carboxamide]
- pKi [1]: 8.60
- α2-GABAAR Relative Efficacy (vs. Diazepam) [2]: 0.81

Compound: CCCNC(=O)c1c(N)c2cccc(-c3cn(C)nc3C)c2n(C)c1=O [Example 80, 4-Amino-8-(1,3-dimethylpyrazol-4-yl)-1-methyl-2-oxo-N-propyl-quinoline-3-carboxamide]
- pKi [1]: 8.35
- α2-GABAAR Relative Efficacy (vs. Diazepam) [2]: 0.6

Compound: Cc1nn(C)cc1-c1cccc2c(N)c(C(=O)NCC3CC3)c(=O)n(C)c12 [Example 81, 4-Amino-N-(cyclopropylmethyl)-8-(1,3-dimethylpyrazol-4-yl)-1-methyl-2-oxo-quinoline-3-carboxamide]
- pKi [1]: 8.66
- α2-GABAAR Relative Efficacy (vs. Diazepam) [2]: 0.81

Compound: Cc1nn(C)cc1-c1cccc2c(N)c(C(=O)NCC(C)C)c(=O)n(C)c12 [Example 82, 4-Amino-8-(1,3-dimethylpyrazol-4-yl)-N-isobutyl-1-methyl-2-oxo-quinoline-3-carboxamide]
- pKi [1]: 8.18
- α2-GABAAR Relative Efficacy (vs. Diazepam) [2]: 0.31
